ChEMBL document CHEMBL2331203, “Optimization of inhibitors of the tyrosine kinase EphB4. 2. Cellular potency improvement and binding mode validation by X-ray crystallography” (J Med Chem, 2013)

Experiments:
[1] = Cytotoxicity against human RXF 393NL cells after 4 days by propidium iodide staining; details: 96 h
[2] = Cytotoxicity against human GXF251L cells after 4 days by propidium iodide staining; details: GXF 251L, 96 h
[3] = target: T1, Ephrin type-B receptor 3 (Homo sapiens) (UniProt P54753); experiment: Inhibition of human Eph-B3 using [gamma-33P]ATP assessed as residual activity at 3 uM after 30 mins by radiometric assay
T1 sequence (whole entry): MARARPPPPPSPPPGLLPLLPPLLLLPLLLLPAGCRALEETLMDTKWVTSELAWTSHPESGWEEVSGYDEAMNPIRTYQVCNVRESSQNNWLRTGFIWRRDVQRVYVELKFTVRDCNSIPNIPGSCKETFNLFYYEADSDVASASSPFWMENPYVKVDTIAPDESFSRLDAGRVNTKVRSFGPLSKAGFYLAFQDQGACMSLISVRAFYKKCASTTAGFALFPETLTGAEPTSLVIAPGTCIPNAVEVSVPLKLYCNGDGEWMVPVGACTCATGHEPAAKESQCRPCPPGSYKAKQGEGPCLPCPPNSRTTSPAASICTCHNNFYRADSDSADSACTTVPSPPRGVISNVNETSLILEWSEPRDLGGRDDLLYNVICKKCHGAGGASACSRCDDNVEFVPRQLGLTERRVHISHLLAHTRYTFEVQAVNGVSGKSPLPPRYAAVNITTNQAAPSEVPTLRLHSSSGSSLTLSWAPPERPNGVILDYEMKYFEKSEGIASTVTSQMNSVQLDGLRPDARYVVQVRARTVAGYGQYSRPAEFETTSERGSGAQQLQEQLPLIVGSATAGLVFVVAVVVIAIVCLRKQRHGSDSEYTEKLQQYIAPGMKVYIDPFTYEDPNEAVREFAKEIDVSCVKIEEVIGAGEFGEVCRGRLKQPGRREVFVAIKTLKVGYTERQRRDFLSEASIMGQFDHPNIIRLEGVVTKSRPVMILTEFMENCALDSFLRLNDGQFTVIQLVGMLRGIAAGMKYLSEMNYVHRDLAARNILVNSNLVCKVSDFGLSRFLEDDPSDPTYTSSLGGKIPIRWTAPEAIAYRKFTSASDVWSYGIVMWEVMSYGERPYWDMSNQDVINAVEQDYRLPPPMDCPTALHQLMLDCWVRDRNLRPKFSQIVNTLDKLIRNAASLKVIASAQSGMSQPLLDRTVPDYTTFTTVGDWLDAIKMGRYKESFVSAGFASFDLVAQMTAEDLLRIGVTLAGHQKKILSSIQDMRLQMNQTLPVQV

[4] = target: Ephrin type-A receptor 4 (Homo sapiens) (UniProt P54764); experiment: Inhibition of human Eph-A4 using [gamma-33P]ATP assessed as residual activity at 3 uM after 30 mins by radiometric assay
[5] = target: Tyrosine-protein kinase CSK (Homo sapiens) (UniProt P41240); experiment: Inhibition of human CSK using [gamma-33P]ATP assessed as residual activity at 3 uM after 30 mins by radiometric assay
Chain of Tyrosine-protein kinase CSK (Homo sapiens) (P41240 2-450 limits assumed): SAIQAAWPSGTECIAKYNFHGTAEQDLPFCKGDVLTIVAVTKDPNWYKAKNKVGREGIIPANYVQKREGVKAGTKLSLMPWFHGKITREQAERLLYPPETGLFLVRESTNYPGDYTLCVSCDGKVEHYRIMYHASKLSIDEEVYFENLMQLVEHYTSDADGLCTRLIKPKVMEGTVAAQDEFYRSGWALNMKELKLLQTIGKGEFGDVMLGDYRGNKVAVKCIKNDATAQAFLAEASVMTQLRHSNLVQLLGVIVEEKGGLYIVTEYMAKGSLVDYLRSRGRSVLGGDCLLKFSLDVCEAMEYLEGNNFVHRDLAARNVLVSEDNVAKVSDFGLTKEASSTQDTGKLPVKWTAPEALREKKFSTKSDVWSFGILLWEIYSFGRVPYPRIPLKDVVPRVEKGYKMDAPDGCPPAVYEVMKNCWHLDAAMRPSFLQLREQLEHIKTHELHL

[6] = target: T2, Tyrosine-protein kinase Yes (Homo sapiens, UniProt P07947); experiment: Inhibition of human Yes1 using [gamma-33P]ATP assessed as residual activity at 3 uM after 30 mins by radiometric assay
Target sequence in this assay (P07947 2-543 limits assumed): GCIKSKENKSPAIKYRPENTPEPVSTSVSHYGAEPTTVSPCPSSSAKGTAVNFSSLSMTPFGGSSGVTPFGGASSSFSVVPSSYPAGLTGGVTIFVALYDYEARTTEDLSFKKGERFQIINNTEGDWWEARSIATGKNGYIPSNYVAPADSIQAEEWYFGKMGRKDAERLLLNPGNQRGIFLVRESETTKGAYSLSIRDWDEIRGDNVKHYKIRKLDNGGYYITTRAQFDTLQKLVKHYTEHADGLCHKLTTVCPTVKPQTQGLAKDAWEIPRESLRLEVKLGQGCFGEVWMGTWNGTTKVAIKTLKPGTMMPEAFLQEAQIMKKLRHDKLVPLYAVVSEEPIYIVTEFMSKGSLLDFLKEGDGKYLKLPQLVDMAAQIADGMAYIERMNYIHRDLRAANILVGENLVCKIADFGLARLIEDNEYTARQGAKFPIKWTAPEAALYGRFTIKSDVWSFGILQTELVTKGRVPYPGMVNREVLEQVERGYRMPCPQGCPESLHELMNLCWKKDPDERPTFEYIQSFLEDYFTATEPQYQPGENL

[7] = target: Receptor-interacting serine/threonine-protein kinase 2 (Homo sapiens) (UniProt O43353); experiment: Inhibition of human RIPK2 using [gamma-33P]ATP assessed as residual activity at 3 uM after 30 mins by radiometric assay
Chain of Receptor-interacting serine/threonine-protein kinase 2 (Homo sapiens) (O43353 whole entry): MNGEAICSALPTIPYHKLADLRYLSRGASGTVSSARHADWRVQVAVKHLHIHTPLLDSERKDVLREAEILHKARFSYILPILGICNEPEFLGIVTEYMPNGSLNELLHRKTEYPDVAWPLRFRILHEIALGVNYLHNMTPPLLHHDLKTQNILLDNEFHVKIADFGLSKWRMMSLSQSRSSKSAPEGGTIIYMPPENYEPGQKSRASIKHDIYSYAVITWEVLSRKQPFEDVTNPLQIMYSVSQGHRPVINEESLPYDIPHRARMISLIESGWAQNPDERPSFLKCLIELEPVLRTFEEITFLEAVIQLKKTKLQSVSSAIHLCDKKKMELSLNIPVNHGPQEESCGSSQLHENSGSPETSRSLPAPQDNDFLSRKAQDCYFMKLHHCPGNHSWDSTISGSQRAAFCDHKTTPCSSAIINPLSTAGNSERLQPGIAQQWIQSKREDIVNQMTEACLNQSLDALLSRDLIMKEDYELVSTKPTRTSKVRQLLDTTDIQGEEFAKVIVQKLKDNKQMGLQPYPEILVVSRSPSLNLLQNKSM

[8] = target: T2, Tyrosine-protein kinase Yes; experiment: Inhibition of Yes1 (unknown origin) using [gamma-33P]ATP after 30 mins by radiometric assay
Target sequence in this assay (P07947 whole entry): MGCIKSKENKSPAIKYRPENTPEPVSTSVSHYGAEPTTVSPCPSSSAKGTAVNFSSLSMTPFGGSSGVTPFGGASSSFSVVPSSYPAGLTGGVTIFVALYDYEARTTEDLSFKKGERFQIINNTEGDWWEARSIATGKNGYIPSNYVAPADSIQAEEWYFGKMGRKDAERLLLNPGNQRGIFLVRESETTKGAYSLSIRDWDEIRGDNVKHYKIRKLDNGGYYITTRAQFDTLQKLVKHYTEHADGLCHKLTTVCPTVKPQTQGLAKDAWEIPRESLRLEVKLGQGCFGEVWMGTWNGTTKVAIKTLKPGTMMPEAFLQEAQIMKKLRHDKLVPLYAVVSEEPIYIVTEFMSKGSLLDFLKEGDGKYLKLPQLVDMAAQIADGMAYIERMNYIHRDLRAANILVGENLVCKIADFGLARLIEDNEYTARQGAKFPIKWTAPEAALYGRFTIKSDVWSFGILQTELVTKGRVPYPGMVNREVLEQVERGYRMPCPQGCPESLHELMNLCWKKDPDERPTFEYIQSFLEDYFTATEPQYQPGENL

[9] = target: Tyrosine-protein kinase Lck (Homo sapiens, UniProt P06239); experiment: Inhibition of Lck (unknown origin) using [gamma-33P]ATP after 30 mins by radiometric assay
Chain of Tyrosine-protein kinase Lck (P06239 whole entry): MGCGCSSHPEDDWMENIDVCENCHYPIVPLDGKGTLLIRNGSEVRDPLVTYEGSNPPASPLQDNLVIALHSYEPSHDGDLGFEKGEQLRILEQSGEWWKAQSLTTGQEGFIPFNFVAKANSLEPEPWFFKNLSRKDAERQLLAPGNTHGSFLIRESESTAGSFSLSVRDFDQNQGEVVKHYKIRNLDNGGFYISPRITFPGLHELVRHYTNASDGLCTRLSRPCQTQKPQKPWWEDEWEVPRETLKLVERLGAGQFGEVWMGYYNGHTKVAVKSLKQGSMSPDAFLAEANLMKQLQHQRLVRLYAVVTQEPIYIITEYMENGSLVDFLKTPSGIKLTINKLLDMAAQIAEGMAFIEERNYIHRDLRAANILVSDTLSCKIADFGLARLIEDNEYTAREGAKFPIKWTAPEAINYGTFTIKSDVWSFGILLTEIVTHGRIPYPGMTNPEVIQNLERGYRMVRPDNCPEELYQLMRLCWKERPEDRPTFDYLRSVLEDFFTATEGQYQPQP

[10] = Apparent permeability from basolateral to apical side in human Caco2 cells after 2 hrs by LC-MS/MS analysis; format: ADME, cell-based; details: Caco-2
[11] = Apparent permeability from apical to basolateral side in human Caco2 cells after 2 hrs by LC-MS/MS analysis; format: ADME, cell-based; details: Caco-2
[12] = Permeability from apical to basolateral side in human Caco2 cells assessed as compound recovery after 2 hrs by LC-MS/MS analysis; format: ADME, cell-based; details: Caco-2, read-out: permeability
Ephrin type-B receptor 4 [13] = target: T3, Ephrin type-B receptor 4 (Homo sapiens, UniProt P54760); experiment: Inhibition of EphB4 (unknown origin) transfected in CHO cells using Z'-LYTE TYR-1 peptide as substrate after 2 hrs by FRET assay; format: cell-based
T3 sequence (P54760 whole entry): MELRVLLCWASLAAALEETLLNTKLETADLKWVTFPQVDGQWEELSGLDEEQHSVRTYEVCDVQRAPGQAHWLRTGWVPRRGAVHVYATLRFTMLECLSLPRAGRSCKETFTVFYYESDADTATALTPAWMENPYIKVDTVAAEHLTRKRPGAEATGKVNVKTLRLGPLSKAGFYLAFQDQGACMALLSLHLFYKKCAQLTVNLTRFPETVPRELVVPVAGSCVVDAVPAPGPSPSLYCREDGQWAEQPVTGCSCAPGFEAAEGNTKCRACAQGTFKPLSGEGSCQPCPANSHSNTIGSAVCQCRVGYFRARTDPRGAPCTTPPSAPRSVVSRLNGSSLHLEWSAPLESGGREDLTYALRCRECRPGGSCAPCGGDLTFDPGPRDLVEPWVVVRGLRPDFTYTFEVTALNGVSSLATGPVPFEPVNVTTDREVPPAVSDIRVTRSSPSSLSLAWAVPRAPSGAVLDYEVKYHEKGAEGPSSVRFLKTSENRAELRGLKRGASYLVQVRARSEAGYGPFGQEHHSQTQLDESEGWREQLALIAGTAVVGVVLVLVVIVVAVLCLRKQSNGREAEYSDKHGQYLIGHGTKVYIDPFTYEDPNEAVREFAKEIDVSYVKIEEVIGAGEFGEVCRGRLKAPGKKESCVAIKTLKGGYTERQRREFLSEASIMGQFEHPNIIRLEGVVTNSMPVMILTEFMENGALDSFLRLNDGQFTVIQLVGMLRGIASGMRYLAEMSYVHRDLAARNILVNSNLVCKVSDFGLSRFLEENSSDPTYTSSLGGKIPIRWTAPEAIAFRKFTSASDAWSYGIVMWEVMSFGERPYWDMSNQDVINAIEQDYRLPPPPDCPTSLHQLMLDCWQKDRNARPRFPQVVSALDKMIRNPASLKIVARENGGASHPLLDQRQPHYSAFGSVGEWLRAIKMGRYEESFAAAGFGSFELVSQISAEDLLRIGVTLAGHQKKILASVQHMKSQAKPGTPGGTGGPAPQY

[14] = target: Tyrosine-protein kinase ABL1 (Homo sapiens, UniProt P00519)
Chain of Tyrosine-protein kinase ABL1 (P00519 whole entry): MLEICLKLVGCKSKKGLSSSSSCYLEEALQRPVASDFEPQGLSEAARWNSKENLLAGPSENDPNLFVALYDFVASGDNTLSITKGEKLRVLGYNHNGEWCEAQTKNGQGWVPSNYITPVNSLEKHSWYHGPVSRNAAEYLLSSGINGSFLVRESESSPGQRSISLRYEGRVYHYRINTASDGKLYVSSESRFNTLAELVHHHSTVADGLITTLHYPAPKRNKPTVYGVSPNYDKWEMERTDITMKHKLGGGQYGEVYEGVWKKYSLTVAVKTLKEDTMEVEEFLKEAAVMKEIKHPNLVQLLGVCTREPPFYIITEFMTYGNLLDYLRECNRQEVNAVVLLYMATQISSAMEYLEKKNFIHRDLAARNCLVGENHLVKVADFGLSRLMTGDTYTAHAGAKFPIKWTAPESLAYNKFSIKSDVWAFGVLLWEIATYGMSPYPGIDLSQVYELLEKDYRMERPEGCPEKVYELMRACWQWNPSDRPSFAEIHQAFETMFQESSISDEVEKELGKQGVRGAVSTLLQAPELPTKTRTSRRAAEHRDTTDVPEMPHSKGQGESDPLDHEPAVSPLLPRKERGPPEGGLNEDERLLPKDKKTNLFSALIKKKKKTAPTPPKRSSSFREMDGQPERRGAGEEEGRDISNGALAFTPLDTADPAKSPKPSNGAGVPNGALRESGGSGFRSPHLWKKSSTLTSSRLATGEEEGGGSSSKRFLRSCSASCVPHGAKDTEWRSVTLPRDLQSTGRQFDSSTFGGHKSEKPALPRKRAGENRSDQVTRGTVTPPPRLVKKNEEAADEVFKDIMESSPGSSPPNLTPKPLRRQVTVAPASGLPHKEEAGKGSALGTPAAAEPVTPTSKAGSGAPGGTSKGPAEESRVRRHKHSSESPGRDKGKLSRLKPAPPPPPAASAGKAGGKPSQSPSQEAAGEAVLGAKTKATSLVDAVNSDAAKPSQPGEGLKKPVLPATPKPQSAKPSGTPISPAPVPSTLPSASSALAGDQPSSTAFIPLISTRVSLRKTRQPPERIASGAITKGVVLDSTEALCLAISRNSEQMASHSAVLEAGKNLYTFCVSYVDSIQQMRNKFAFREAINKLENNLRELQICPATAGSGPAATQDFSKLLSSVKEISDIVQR
Description: Inhibition of Abl (unknown origin) using [gamma-33P]ATP after 30 mins by radiometric assay

[15] = target: Proto-oncogene tyrosine-protein kinase Src (Homo sapiens, UniProt P12931)
Chain of Proto-oncogene tyrosine-protein kinase Src (P12931 2-536 limits assumed): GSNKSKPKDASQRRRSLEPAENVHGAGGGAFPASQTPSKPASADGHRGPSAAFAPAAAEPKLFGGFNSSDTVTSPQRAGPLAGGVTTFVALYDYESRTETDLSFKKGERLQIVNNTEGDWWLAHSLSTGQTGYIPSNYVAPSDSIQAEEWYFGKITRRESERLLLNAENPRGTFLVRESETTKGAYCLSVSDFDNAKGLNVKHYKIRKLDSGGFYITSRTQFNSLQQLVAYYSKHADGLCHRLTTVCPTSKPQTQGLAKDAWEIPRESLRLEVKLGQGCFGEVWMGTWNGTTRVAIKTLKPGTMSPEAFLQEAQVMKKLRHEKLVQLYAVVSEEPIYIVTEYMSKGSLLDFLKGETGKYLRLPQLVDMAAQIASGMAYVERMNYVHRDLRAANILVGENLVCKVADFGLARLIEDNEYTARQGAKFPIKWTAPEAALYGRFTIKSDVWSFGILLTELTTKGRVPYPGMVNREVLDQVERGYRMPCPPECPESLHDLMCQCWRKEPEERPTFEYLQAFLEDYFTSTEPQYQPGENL
Description: Inhibition of Src (unknown origin) using [gamma-33P]ATP after 30 mins by radiometric assay

Ephrin type-B receptor 4 [16] = target: T3, Ephrin type-B receptor 4
Description: Inhibition of human myc-tagged full length EphB4 expressed in MEF cells assessed as inhibition of ephrinB2-Fc-induced autophosphorylation incubated for 90 mins prior to ephrinB2-Fc-induction measured after 2 hrs by sandwich ELISA

in vitro = details: human, Caco-2
Description: Efflux ratio of apparent permeability from basolateral to apical side to apical to basolateral side in human Caco2 cells

`CCCCn1c(-c2ccccc2C)cn2c3c(=O)[nH]c(=O)n(C)c3nc12` showed an IC50 [1] of 7.6 µM, an IC50 [2] of 14.6 µM and an Activity [3] of 13%. For the same molecule, the Activity [4] was 5%, the Activity [5] was 57% and the Activity [6] was 14%. For the same molecule, the Activity [7] was 12%, the IC50 [8] was 0.284 µM and the IC50 [9] was 0.493 µM. For the same molecule, the Papp B→A at 2 h [10] was 28.1 ×10⁻⁶ cm/s, the Papp A→B at 2 h [11] was 42.7 ×10⁻⁶ cm/s and the recovery at 2 h [12] was 85%. The IC50 (Ephrin type-B receptor 4 [13]) was 0.056 µM, the IC50 [14] was 0.578 µM and the IC50 [15] was 0.071 µM. The IC50 (Ephrin type-B receptor 4 [16]) was 0.05 µM and the efflux ratio (in vitro) was 0.7.
